Measured values published in patent US20060167098A1, “Method for the treatment of diseases linked to an accumulation of triglycerides and cholesterol” (Institut National De La Sante ET De LA Recherche Medicale …, priority 2003, published 2006).

Columns and labels:
[1] = Plasma glucose in lean mice, standard diet, 6 weeks, not fasted; type: in vivo; details: 100 mg/kg/day 6 weeks
Description: (§1) Plasma glucose was measured on an automatic analyser (Synchron LX20 from Beckman Coulter) with a commercial kit (kit n°472500 from Beckman).
In a second series of experiments plasma glucose was assessed in lean mice fed with the standard diet and receiving (6 mice) or not (6 mice) 100 mg/kg/day of β-aminoisobutyric acid in the drinking water for 6 weeks, but at the end of the experiment, mice were not fasted. […] Indeed, plasma glucose was 11.5±0.8 and 10.7±0.4 mmol/L, respectively in control and treated mice.

[2] = Plasma lipids in Swiss mice fed with a western diet, 6 weeks, 48-hour fast; type: in vivo; details: 100 mg/kg/day
Description: (§2) Plasma lipids (triglycerides, total cholesterol, phospholipids) were measured on an automatic analyser (Hitachi 717®). The commercial kits used to assess triglycerides, total cholesterol and phospholipids on this analyser were all from bioMérieux (references 61238, 61219 and 61491, respectively). Plasma non esterified fatty acids (NEFA) were assessed by using a commercial kit (Wako, reference 994-75409). Hepatic and plasma lipids were performed at the end of six weeks of treatment in animals that have been fasted for 48 hours. Triglycerides and HDL-cholesterol were also assessed after 2 months (in the fed state) or after 4 months of treatment (after an overnight fast).
Plasma lipids were assessed in mice fed with the western diet (WD) and receiving or not of 100 mg/kg/day of β-aminoisobutyric acid (BAIBA) in the drinking water (8 mice in each group). For comparison, the experiment also included a group of mice (n=8) fed with a standard diet (SD). These animals were those used for the determination of body fat by DEXA and liver lipids (see above, paragraph I-c and II-a, respectively). After the last DEXA measurement (after 6 weeks of treatment), mice were allowed to recover from the anaesthesia for ca. 2 days and were then submitted to a 48-hour period of fast. At the end of this fasting period, a sample of blood was collected (from the retroorbital sinus) […] and plasma triglycerides, phospholipids, total cholesterol and non-esterified fatty acids (NEFA) were subsequently determined. After 6 weeks, the western diet was responsible for an increase of all plasma lipids, but the most affected lipids were triglycerides.

[3] = Plasma lipids in very young ob/ob mice; type: in vivo; details: very young ob/ob mice (6 weeks at the beginning)
Description: as §2
Accordingly, plasma triglycerides were 1.35 and 1.39 mmol/L in ob/ob mice in the present study, whereas much higher levels (1.96 mmol/L) were found in Swiss mice fed with the western diet (see above). Thus, it remains possible that the beneficial effects of BAIBA on plasma lipids are more pronounced when lipid levels are above a certain threshold. In keeping with this notion, BAIBA reduced by 22% plasma triglycerides in mice fed with the western diet (FIG. 6).

[4] = Plasma glucose, insulin, adiponectin and leptin in lean mice, standard diet, 6 weeks, 48 hours fast; type: in vivo; details: 100 mg/kg/day 6 weeks, fasted 48 hours
Description: as §1
(§3) Plasma insulin, adiponectin and leptin were measured by radioimmunoassay (RIA). Insulin was measured with the Insulin-CT kit from Cis Bio International (Gif-sur-Yvette, France), whereas plasma leptin and adiponectin were assessed with kits from Linco Research Inc. (St Charles, Mo.). Leptin was not measured in ob/ob mice since these animals are genetically leptin-deficient (Friedman J. M., Halaas J. L., 1998, Nature 395: 763-770). Results regarding insulin were expressed as recommended by kit manufacturer.
Glucose, insulin, adiponectine and leptin were assessed in lean mice fed with the standard diet and receiving (13 mice) or not (12 mice) 100 mg/kg/day of β-aminoisobutyric acid in the drinking water for 6 weeks.
At the end of the 6-weeks period of treatment, mice were submitted to a fasting period for 48 hours. Plasma glucose, insulin and adiponectin were not changed in treated mice, but a trend toward lower leptin levels was observed. Indeed, plasma leptin was 3.72±0.59 and 3.14±0.34 ng/ml, respectively in control mice (n=12) and mice treated with β-aminoisobutyric acid (n=13). Leptin is an adipokine mainly secreted by adipose tissue and its plasma levels in human and mice are highly correlated with the whole adipose tissue mass (Friedman J. M. and Hallas J. L., 1998, Nature 395: 763-770). Thus, data regarding plasma leptin are in keeping with the observation that β-aminoisobutyric acid limits body fat accumulation in lean mice.

[5] = system: mitochondrial beta-oxidation of fatty acids in liver; assay: Mitochondrial beta-oxidation of fatty acids in liver
[6] = Plasma glucose and insulin in obese ob/ob mice (10 to 12-weeks old), 6 weeks; type: in vivo
Description: as §1, §3
In obese ob/ob mice (10 to 12-weeks old) treated with 100 mg/kg/d of β-aminoisobutyric acid for 6 weeks and fasted for the last 48 hours, there was a trend toward lower plasma levels of glucose and insulin. Indeed, plasma glucose was 11.1±1.4 and 9.0±0.9 mmol/L, respectively in control ob/ob mice (n=6) and mice treated with β-aminoisobutyric acid (n=8). Plasma insulin was 37±19 and 24±6 μU/ml, respectively in control mice (n=4) and mice treated with β-aminoisobutyric acid (n=5). […] Indeed, insulin was 83±13 and 64±7 μU/ml, respectively in control mice (n=5) and mice treated with β-aminoisobutyric acid (n=5).

[7] = 100 mg/kg/d 6 weeks, ob/ob 10 to 12-weeks old, fasted 48 hours
[8] = obese mice, standard diet, 6 weeks

With `CC(CN)C(=O)O` (racemic) [BAIBA, D,L-β-Aminoisobutyric acid] the plasma glucose [1] was 10.7 ± 0.4 mmol/L, the “decrease of plasma NEFA” value [2] was 16% and the “decrease of total cholesterol” value [2] was 4%. The “plasma NEFA” value [2] was 0.88 ± 0.06 mmol/L, the plasma total cholesterol [2] was 6.71 ± 0.27 mmol/L and the plasma triglycerides [2] was 1.54 ± 0.13 mmol/L. The “reduction of plasma triglycerides” value ([2]; not significant) was 22%, the plasma phospholipids [3] was 4.35 ± 0.11 mmol/L and the plasma total cholesterol [3] was 4.96 ± 0.15 mmol/L. For the same molecule, the plasma triglycerides [3] was 1.07 ± 0.03 mmol/L, the “reduction of plasma phospholipids” value [3] was 4% and the “reduction of total cholesterol” value [3] was 5%. The “plasma adiponectin vs control” value [4] was “not changed”, the “plasma glucose vs control” value [4] was “not changed” and the “plasma insulin vs control” value [4] was “not changed”. The plasma leptin [4] was 3.14 ± 0.34 ng/mL, the “mitochondrial beta-oxidation of fatty acids in liver” value [5] was “increases” and the plasma glucose [6, 7] was 9.0 ± 0.9 mmol/L. The plasma insulin [6, 7] was 24±6 μU/ml, the plasma insulin ([6]; 100 mg/kg/d 6 weeks, ob/ob 10 to 12-weeks old, fed state) was 64±7 μU/ml and the “decrease of the glucose plasma level” value [6, 8] was “around 20%”. For the same molecule, the “decrease of the insulin plasma level” value [6, 8] was “around 35%”.
